# Source: patent US11390621B2, “Chiral indole compounds and their use” (ARIAGEN, INC., priority 2019, dated 2022)
# Values joined by “and” are separate entries in the source; they are usually repeats but may differ in a detail not shown here. Identical values can stand only once. Like-named read-outs stand apart in the source and are kept apart here.
# Columns and labels:
# EMT-6 cancer cells = experiment: EMT-6 subcutaneous syngeneic mouse tumor model (Example 48); type: in vivo, BALB/C mice; conditions: 40 mg/kg, IP
# Description: This example describes in vivo studies that evaluated the anti-cancer efficacy of ARI-143, ARI-164, ARI-165, and ARI-186 in syngeneic mouse tumor models. Mice implanted subcutaneously with EMT-6 or Pan02 cancer cells were treated with ARI-143, ARI-164, ARI-165, ARI-186, or vehicle controls, as described below.
# A monolayer culture of tumor cells was maintained in vitro in DMEM or RPMI1640 medium supplemented with 10% fetal bovine serum at 37° C. in an atmosphere of 5% CO2. Cells in exponential growth phase were harvested and quantitated by cell counter before tumor inoculation. The cell lines used are described in the table below.
# Two subcutaneous syngeneic mouse tumor models were generated by innoculating female BALB/C or C57BL/6 mice with cancer cells at their right lower or front flank as detailed in the table below:
# Each mouse was inoculated subcutaneously with tumor cells in 0.1 mL of PBS. Treatments were started when the mean tumor size reached approximately 80-120 mm^3 (around 100 mm^3). The administration of the test compounds and the animal number in each study group are shown in the study design. The date of tumor cell inoculation was denoted as day 0.
# ARI-143, ARI-164, and ARI-165 were dissolved in DMSO at the final concentration of 26.7 mg/ml and stored at room temperature. In Pan02 studies of ARI-164 and ARI-186, both compounds were dissolved in 100% PEG400.
# Randomization of animals was started when the mean tumor size reached approximately 90 mm^3 to form the mouse study groups. The randomization was-performed based on “Matched distribution” method using the multi-task method (StudyDirector™ software, version 3.1.399.19)/randomized block design. The mouse groups (ten in each group) were treated with vehicle (DMSO or PEG400) or the test compounds at a dose of 26-80 mg/kg by intraperitoneal (i.p.). injection, QD for 28 days or longer.
# After tumor cell inoculation, the mice were checked daily for morbidity and mortality. During routine monitoring, the mice were checked for tumor growth and any effects of the treatment on behavior such as mobility, food and water consumption, body weight gain/loss (body weights were measured twice per week after randomization), eye/hair matting, and any other abnormalities. Mortality and observed clinical signs were recorded for individual mice in detail.
# Tumor volumes were measured twice per week in two dimensions using a caliper, and the volume was expressed in mm^3 using the formula: V=(L×W×W)/2, where V is tumor volume, L is tumor length (the longest tumor dimension) and W is tumor width (the longest tumor dimension perpendicular to L). Dosing as well as tumor and body weight measurements was conducted in a Laminar Flow Cabinet. The body weights and tumor volumes were measured by using StudyDirector™ software (version 3.1.399.19). Dosing Holiday
# Tumor growth inhibition percentage (TGI %) is an indicator for antitumor activity of a drug compound, and expressed as: TGI(%)=100×(1−T/C), where T and C are the mean tumor volume (or weight) of the treated and control groups, respectively, on a given day. Statistical analysis of the difference in mean tumor volume (MTV) among the groups was conducted using the data collected on the day when the MTV of the vehicle group reached the humane endpoints, so that TGI could be derived for all or most mice enrolled in the study.
# [1] = In vivo pharmacokinetic studies in rats; design: species or system SD rats; conditions: rats; for AUC(0-t): read-out: AUClast; for Tmax: read-out: Tmax
# Description: This example describes pharmacokinetic (PK) studies of ARI-164, ARI-165, ARI-186, ARI-224, and ARI-226 in mice and rats. In the present studies, the test compounds were given to groups of mice and/or rats (N=3 in each group), intravenously (IV) at 2 mg/kg or orally (PO) at 10, 30, or 40 mg/kg. ARI-186, ARI-224 and ARI-226 were given orally to rats QD for 5 days at 10 mg/kg to assess whether decreased susceptibility to CYP1A1/1A2 metabolism would lead to increased accumulation. IV doses were formulated in DMSO, while PO doses were formulated in a 50/50 mixture of PEG400 and Tween 80 (single dose mouse and rat studies for ARI-164, ARI-165, ARI-186, ARI-224, ARI-226) or PEG400/Kolliphor HS15/Oleic Acid 45/45/10 (ARI-164 repeat dose rat study). Blood samples were collected at pre-dose and over a period of 24 hours post-dose. Plasma concentrations of the test compounds were determined by HPLC.
# [2] = SD, rat, plasma, iv, 2 mg/kg, single 2 mg/kg IV dose, Mean of 3 animals
# [3] = SD, rat, plasma, iv, 2 mg/kg, single 2 mg/kg IV dose, individual animal
# [4] = Sprague-Dawley (SD), rat, plasma, iv, 2 mg/kg, single 2 mg/kg IV dose, Mean of 3 animals
# [5] = Sprague-Dawley (SD), rat, plasma, po, 10 mg/kg, single 10 mg/kg PO dose, Mean of 3 animals
# [6] = Sprague-Dawley (SD), rat, plasma, po, 10 mg/kg, single 10 mg/kg PO dose, individual animal
# [7] = single 2 mg/kg IV dose, individual animal, 2 mg/kg
# [8] = single 10 mg/kg PO dose, individual animal, 10 mg/kg
structure (smiles),measurement,setting,value
"CC[C@@H](O)c1csc(C(=O)c2c[nH]c3cc(F)ccc23)n1 [ARI-165, (R)-(6-Fluoro-1H-indol-3-yl)(4-(1-hydroxypropyl)thiazol-2-yl)methanone]",TGI,EMT-6 cancer cells; study day 6,0.0%
same,TGI,EMT-6 cancer cells; study day 10,−7.9%
same,TGI,EMT-6 cancer cells; study day 13,−8.6%
same,TGI,EMT-6 cancer cells; study day 17,14.5%
same,TGI,EMT-6 cancer cells; study day 20,23.1%
same,TGI,EMT-6 cancer cells; study day 24,25.8%
same,TGI,EMT-6 cancer cells; study day 27,12.5%
same,TGI,EMT-6 cancer cells; study day 31,9.1%
same,AUC(0-inf),[1]; [2],12800 ng·h/mL
same,clearance,[1]; [2],5.38 mL/min/kg
same,AUC(0-t),[1]; [2],12600 ng·h/mL
same,MRT inf,[1]; [3],0.81 h
same,MRT last,[1]; [3],0.79 h
same,Tmax,[1]; [3],0.083 h
same,MRT inf,[1]; [4],1.11 h
same,MRT last,[1]; [4],0.959 h
same,half-life,[1]; [4],1.33 h
same,Cmax,"[1]; Sprague-Dawley (SD), rat, plasma, iv, 2 mg/kg, single 2 mg/kg IV dose, Mean of 3 animals, read-out: Cmax",19200 ng/mL
same,Tmax,[1]; [4],0.083 h
same,Vd,"[1]; Sprague-Dawley (SD), rat, plasma, iv, 2 mg/kg, single 2 mg/kg IV dose, Mean of 3 animals, read-out: Vss",0.32 L/kg
same,AUC(0-inf),[1]; [5],4310 ng·h/mL
same,MRT inf,[1]; [5],3.08 h
same,MRT last,[1]; [5],2.82 h
same,half-life,[1]; [5],1.09 h
same,AUC(0-t),[1]; [5],4160 ng·h/mL
same,Cmax,"[1]; Sprague-Dawley (SD), rat, plasma, po, 10 mg/kg, single 10 mg/kg PO dose, Mean of 3 animals, read-out: Cmax",1120 ng/mL
same,Tmax,[1]; [5],2 h
same,AUC(0-inf),[1]; [6],4680 ng·h/mL
same,MRT inf,[1]; [6],3.41 h
same,MRT last,[1]; [6],2.71 h
same,AUC(0-t),[1]; [6],4260 ng·h/mL
same,Cmax,"[1]; Sprague-Dawley (SD), rat, plasma, po, 10 mg/kg, single 10 mg/kg PO dose, individual animal, read-out: Cmax",1250 ng/mL
same,Tmax,[1]; [6],2 h
same,bioavailability,"[1]; Sprague-Dawley (SD), rat, plasma, 10 mg/kg PO vs 2 mg/kg IV, read-out: F (Bioavailability)",6.73%
same,AUCinf,[1]; [7],19500 ng·h/mL and 16300 ng·h/mL and 2690 ng·h/mL
same,AUClast,[1]; [7],19500 ng·h/mL and 15700 ng·h/mL and 2620 ng·h/mL
same,Cl,[1]; [7],1.72 mL/min/kg and 2.05 mL/min/kg and 12.4 mL/min/kg
same,Cmax,[1]; [7],36500 ng/mL and 17100 ng/mL and 3880 ng/mL
same,MRTinf,[1]; [7],1.61 h and 0.91 h
same,MRTlast,[1]; [7],1.28 h and 0.8 h
same,T1/2,[1]; [7],1.07 h and 2.11 h and 0.83 h
same,Vss,[1]; [7],0.0832 L/kg and 0.198 L/kg and 0.677 L/kg
same,AUCinf,[1]; [8],4650 ng·h/mL and 3620 ng·h/mL
same,AUClast,[1]; [8],4640 ng·h/mL and 3560 ng·h/mL
same,Cmax,[1]; [8],1070 ng/mL and 1040 ng/mL
same,MRTinf,[1]; [8],3.12 h and 2.71 h
same,MRTlast,[1]; [8],3.12 h and 2.64 h
same,T1/2,[1]; [8],1.87 h and 0.541 h and 0.87 h
